Values joined by “and” are separate entries in the source; they are usually repeats but may differ in a detail not shown here. Equal values may be shown once. Toxic doses and inconclusive results are not listed. Cut-off read from the data, not from the text of the source: active = T/C of 150% or more; inactive = T/C below 125%.
Tested on: L1210 leukemia ip in BDF1 mice, survival T/C
Assay: NCI In Vivo Anticancer Drug Screen. Data for tumor model L1210 Leukemia (intraperitoneal) in B6D2F1 (BDF1) mice
Conditions: endpoint: mean survival time, higher = longer survival
Method in brief: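 Tumor was transplanted into mice, which were then dosed with test compound or vehicle alone. Survival was recorded for each group, and the treated figure was expressed relative to the control figure.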

[1] = dose: 75.0 mg/kg/injection, schedule: Q01DX001 (ip), vehicle: saline
[2] = dose: 150.0 mg/kg/injection, schedule: Q01DX001 (ip), vehicle: saline
[3] = dose: 100.0 mg/kg/injection, schedule: Q04DX002 (ip), vehicle: Klucel (hydroxypropylcellulose) (HPC)
[4] = dose: 200.0 mg/kg/injection, schedule: Q04DX002 (ip), vehicle: Klucel (hydroxypropylcellulose) (HPC)
[5] = dose: 400.0 mg/kg/injection, schedule: Q04DX002 (ip), vehicle: Klucel (hydroxypropylcellulose) (HPC)
[6] = dose: 25.0 mg/kg/injection, schedule: Q04DX003 (ip), vehicle: saline
[7] = dose: 50.0 mg/kg/injection, schedule: Q04DX003 (ip), vehicle: saline
[8] = dose: 100.0 mg/kg/injection, schedule: Q04DX003 (ip), vehicle: saline
[9] = dose: 100.0 mg/kg/injection, schedule: Q01DX009 (ip), vehicle: Klucel (hydroxypropylcellulose) (HPC)
[10] = dose: 100.0 mg/kg/injection, schedule: Q04DX003 (ip), vehicle: Klucel (hydroxypropylcellulose) (HPC)
[11] = dose: 200.0 mg/kg/injection, schedule: Q01DX009 (ip), vehicle: Klucel (hydroxypropylcellulose) (HPC)
[12] = dose: 200.0 mg/kg/injection, schedule: Q04DX003 (ip), vehicle: Klucel (hydroxypropylcellulose) (HPC)
[13] = dose: 400.0 mg/kg/injection, schedule: Q01DX009 (ip), vehicle: Klucel (hydroxypropylcellulose) (HPC)
[14] = dose: 400.0 mg/kg/injection, schedule: Q04DX003 (ip), vehicle: Klucel (hydroxypropylcellulose) (HPC)

Measured: T/C

CC(C)(C)CNC(=S)Nc1ccccc1
inactive: dose: 9.5 mg/kg/injection, schedule: Q01DX001 (ip), vehicle: other 98 % of control | dose: 19.0 mg/kg/injection, schedule: Q01DX001 (ip), vehicle: other 102 % of control | dose: 38.0 mg/kg/injection, schedule: Q01DX001 (ip), vehicle: other 104 % of control | dose: 75.0 mg/kg/injection, schedule: Q01DX001 (ip), vehicle: other 90 % of control

C[N+](C)(C)c1ccc(/C(C#N)=N/O)cc1
inactive: dose: 12.5 mg/kg/injection, schedule: Q01DX009 (ip), vehicle: Klucel (hydroxypropylcellulose) (HPC) 101 % of control | dose: 25.0 mg/kg/injection, schedule: Q01DX009 (ip), vehicle: Klucel (hydroxypropylcellulose) (HPC) 100 % of control

CS(=O)(=O)OCC#CCOS(C)(=O)=O
inactive: dose: 8.0 mg/kg/injection, schedule: Q01DX Z (ip), vehicle: saline 100 % of control | dose: 16.0 mg/kg/injection, schedule: Q01DX Z (ip), vehicle: saline 109 % of control | dose: 32.0 mg/kg/injection, schedule: Q01DX Z (ip), vehicle: saline 105 % of control | dose: 64.0 mg/kg/injection, schedule: Q01DX Z (ip), vehicle: saline 117 % of control

NC(=O)c1c(/N=C/c2cc(Cl)cc(Cl)c2O)sc2c1CCCC2
inactive: dose: 100.0 mg/kg/injection, schedule: Q04DX002 (ip), vehicle: saline with Tween-80 96 % of control | dose: 200.0 mg/kg/injection, schedule: Q04DX002 (ip), vehicle: saline with Tween-80 93 % of control | dose: 400.0 mg/kg/injection, schedule: Q04DX002 (ip), vehicle: saline with Tween-80 96 % of control

Cc1cc(C)c2cc(C=O)cc-2c(C)c1
inactive: dose: 100.0 mg/kg/injection, schedule: Q04DX003 (ip), vehicle: saline with Tween-80 103 % of control | dose: 200.0 mg/kg/injection, schedule: Q04DX003 (ip), vehicle: saline with Tween-80 94 % of control | dose: 400.0 mg/kg/injection, schedule: Q04DX003 (ip), vehicle: saline with Tween-80 93 % of control

Nc1cc2ncccc2c2ncccc12
inactive: [1] 107 % of control | [2] 102 % of control

CC1C(=O)C(C)C(C(=O)O)C1C (configuration not stated)
inactive: [3] 100 % of control | [4] 107 % of control | [5] 93 % of control

N=C(N)SCc1csc(N)n1
inactive: [6] 119 % of control | [7] 111 % of control | dose: 100.0 mg/kg/injection, schedule: Q01DX009 (ip), vehicle: saline 112 % of control | [8] 100 % of control and 117 % of control | dose: 200.0 mg/kg/injection, schedule: Q01DX009 (ip), vehicle: saline 96 % of control

CN(C)C/C=C/COC(=O)C(C)(C)C
inactive: [1] 93 % of control | [2] 97 % of control | dose: 300.0 mg/kg/injection, schedule: Q01DX001 (ip), vehicle: saline 87 % of control

COc1ccc(NC(=O)Oc2ccc(OC)cc2)cc1
inactive: [9] 103 % of control | [10] 97 % of control | [11] 95 % of control | [12] 89 % of control | [13] 89 % of control | [14] 91 % of control

COc1ccc(C)cc1NC(=O)Nc1cc([N+](=O)[O-])ccc1F
inactive: [3] 87 % of control | [4] 104 % of control | [5] 108 % of control

Clc1ccc(CSc2ncc(Br)c(N3CC3)n2)c(Cl)c1
inactive: dose: 88.0 mg/kg/injection, schedule: Q01DX Z (ip), vehicle: methylcellulose (MC) 89 % of control | dose: 133.0 mg/kg/injection, schedule: Q01DX Z (ip), vehicle: methylcellulose (MC) 94 % of control

O=C(COc1ccc(Br)cc1)Nc1ccc(Cl)cc1
inactive: [3] 95 % of control | [4] 92 % of control | [5] 89 % of control

CCOC=NC1=C(Cl)C(=O)C(N=COCC)=C(Cl)C1=O
inactive: [10] 92 % of control | [12] 94 % of control

CC(=O)OC(OC(C)=O)c1ccc([N+](=O)[O-])o1
inactive: dose: 12.5 mg/kg/injection, schedule: Q04DX003 (ip), vehicle: Klucel (hydroxypropylcellulose) (HPC) 101 % of control | dose: 25.0 mg/kg/injection, schedule: Q04DX003 (ip), vehicle: Klucel (hydroxypropylcellulose) (HPC) 87 % of control | dose: 50.0 mg/kg/injection, schedule: Q04DX003 (ip), vehicle: Klucel (hydroxypropylcellulose) (HPC) 98 % of control | [10] 96 % of control

COc1ccc(C(C(C)=O)N2CCN(c3ccccc3)CC2)cc1 (configuration not stated)
inactive: dose: 100.0 mg/kg/injection, schedule: Q04DX003 (ip), vehicle: other 98 % of control | dose: 200.0 mg/kg/injection, schedule: Q04DX003 (ip), vehicle: other 95 % of control

CCc1ccc(NC2=C(OC)C(=O)C(Nc3ccc(CC)cc3)=C(OC)C2=O)cc1
inactive: dose: 50.0 mg/kg/injection, schedule: Q01DX001 (ip), vehicle: carboxymethylcellulose (CMC) 98 % of control | dose: 100.0 mg/kg/injection, schedule: Q01DX001 (ip), vehicle: carboxymethylcellulose (CMC) 93 % of control | dose: 200.0 mg/kg/injection, schedule: Q01DX001 (ip), vehicle: carboxymethylcellulose (CMC) 98 % of control | dose: 400.0 mg/kg/injection, schedule: Q01DX001 (ip), vehicle: carboxymethylcellulose (CMC) 90 % of control

O=C(O)/C=C\c1c[nH]c2nccnc12
inactive: dose: 25.0 mg/kg/injection, schedule: Q01DX009 (ip), vehicle: saline 101 % of control | [6] 117 % of control | dose: 50.0 mg/kg/injection, schedule: Q01DX009 (ip), vehicle: saline 88 % of control | [7] 115 % of control | [8] 103 % of control and 106 % of control

O=C(Nc1ccccc1)OCC(Cl)(Cl)Cl
inactive: dose: 100.0 mg/kg/injection, schedule: Q01DX001 (ip), vehicle: saline sonified 105 % of control | [9] 100 % of control | [8] 91 % of control | dose: 200.0 mg/kg/injection, schedule: Q01DX001 (ip), vehicle: saline sonified 108 % of control | [11] 107 % of control | dose: 200.0 mg/kg/injection, schedule: Q04DX003 (ip), vehicle: saline 100 % of control | dose: 400.0 mg/kg/injection, schedule: Q01DX001 (ip), vehicle: saline sonified 103 % of control | [13] 100 % of control | dose: 400.0 mg/kg/injection, schedule: Q04DX003 (ip), vehicle: saline 96 % of control

COc1cc(CC(=O)C2CN(C(=O)Cc3cc(Cl)c(OC)c(OC)c3)c3ccc(Br)cc32)cc(Cl)c1OC (configuration not stated)
inactive: dose: 50.0 mg/kg/injection, schedule: Q01DX001 (ip), vehicle: saline 96 % of control | dose: 100.0 mg/kg/injection, schedule: Q01DX001 (ip), vehicle: saline 96 % of control | dose: 200.0 mg/kg/injection, schedule: Q01DX001 (ip), vehicle: saline 90 % of control | dose: 400.0 mg/kg/injection, schedule: Q01DX001 (ip), vehicle: saline 93 % of control

CN(CC#CCOc1ccc(Cl)cc1Cl)c1ccccc1
inactive: [3] 102 % of control | [4] 98 % of control | [5] 91 % of control

O=[N+]([O-])c1ccc(OCCCCOc2ccccc2)c(Cl)c1
inactive: [10] 95 % of control | [12] 96 % of control | [14] 91 % of control

COc1n[n+]([O-])c(Cl)c(/C=C\c2ccccc2)c1[N+](=O)[O-]
inactive: dose: 75.0 mg/kg/injection, schedule: Q04DX002 (ip), vehicle: Klucel (hydroxypropylcellulose) (HPC) 93 % of control | dose: 150.0 mg/kg/injection, schedule: Q04DX002 (ip), vehicle: Klucel (hydroxypropylcellulose) (HPC) 101 % of control | dose: 300.0 mg/kg/injection, schedule: Q04DX002 (ip), vehicle: Klucel (hydroxypropylcellulose) (HPC) 101 % of control

From PubChem BioAssay AID248 (DTP/NCI, 2004)
